Among the targets are Ephrin type-A receptor 4 (Homo sapiens, UniProt P54764); Focal adhesion kinase 1 (Homo sapiens, UniProt Q05397); Aurora kinase B (Homo sapiens, UniProt Q96GD4).
In test [1] the target is T1, Peroxisomal acyl-coenzyme A oxidase 1 (Homo sapiens, UniProt Q15067).
T1 sequence (Q15067 whole entry): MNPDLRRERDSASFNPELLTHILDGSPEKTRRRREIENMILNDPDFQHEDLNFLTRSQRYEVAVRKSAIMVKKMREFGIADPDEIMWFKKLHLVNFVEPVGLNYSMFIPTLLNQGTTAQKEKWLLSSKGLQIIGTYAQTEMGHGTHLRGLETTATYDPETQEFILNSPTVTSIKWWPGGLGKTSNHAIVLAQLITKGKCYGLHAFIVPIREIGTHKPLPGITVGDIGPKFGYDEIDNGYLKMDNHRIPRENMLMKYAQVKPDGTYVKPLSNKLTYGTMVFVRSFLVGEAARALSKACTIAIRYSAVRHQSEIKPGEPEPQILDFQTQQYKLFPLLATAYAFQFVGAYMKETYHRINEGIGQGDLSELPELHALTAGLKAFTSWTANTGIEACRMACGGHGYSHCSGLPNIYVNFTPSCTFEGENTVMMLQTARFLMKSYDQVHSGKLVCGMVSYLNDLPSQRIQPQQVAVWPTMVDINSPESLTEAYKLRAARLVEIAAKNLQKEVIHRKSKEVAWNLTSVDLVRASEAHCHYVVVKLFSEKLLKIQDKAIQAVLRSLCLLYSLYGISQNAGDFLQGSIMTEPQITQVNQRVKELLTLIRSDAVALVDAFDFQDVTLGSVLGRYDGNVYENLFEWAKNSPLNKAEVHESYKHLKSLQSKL

In test [2] the target is Serine/threonine-protein kinase B-raf (Homo sapiens, UniProt P15056).
Sequence of Serine/threonine-protein kinase B-raf (P15056 whole entry): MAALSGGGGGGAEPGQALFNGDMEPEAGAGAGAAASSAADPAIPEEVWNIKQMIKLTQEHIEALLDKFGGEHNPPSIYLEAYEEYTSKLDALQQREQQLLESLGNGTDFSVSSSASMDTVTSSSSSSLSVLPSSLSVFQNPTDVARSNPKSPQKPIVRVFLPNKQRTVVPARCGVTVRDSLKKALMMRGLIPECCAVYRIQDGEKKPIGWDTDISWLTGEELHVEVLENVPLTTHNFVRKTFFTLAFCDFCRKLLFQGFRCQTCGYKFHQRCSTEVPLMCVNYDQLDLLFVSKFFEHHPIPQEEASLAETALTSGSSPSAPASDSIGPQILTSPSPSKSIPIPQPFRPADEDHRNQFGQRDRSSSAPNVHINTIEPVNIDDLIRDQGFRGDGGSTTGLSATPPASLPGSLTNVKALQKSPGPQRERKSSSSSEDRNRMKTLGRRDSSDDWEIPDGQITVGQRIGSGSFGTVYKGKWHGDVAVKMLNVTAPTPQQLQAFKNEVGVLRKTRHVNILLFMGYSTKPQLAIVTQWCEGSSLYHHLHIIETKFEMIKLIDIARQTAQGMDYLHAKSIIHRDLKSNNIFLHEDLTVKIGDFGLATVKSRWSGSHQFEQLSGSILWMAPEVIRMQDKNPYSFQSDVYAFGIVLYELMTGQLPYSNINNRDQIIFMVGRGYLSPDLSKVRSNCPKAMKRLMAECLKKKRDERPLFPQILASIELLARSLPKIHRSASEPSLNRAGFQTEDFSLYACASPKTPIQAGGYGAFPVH
For the next test, the target named is T2, Scaffold protein ILK (Homo sapiens, UniProt Q13418).
T2 sequence (Q13418 whole entry): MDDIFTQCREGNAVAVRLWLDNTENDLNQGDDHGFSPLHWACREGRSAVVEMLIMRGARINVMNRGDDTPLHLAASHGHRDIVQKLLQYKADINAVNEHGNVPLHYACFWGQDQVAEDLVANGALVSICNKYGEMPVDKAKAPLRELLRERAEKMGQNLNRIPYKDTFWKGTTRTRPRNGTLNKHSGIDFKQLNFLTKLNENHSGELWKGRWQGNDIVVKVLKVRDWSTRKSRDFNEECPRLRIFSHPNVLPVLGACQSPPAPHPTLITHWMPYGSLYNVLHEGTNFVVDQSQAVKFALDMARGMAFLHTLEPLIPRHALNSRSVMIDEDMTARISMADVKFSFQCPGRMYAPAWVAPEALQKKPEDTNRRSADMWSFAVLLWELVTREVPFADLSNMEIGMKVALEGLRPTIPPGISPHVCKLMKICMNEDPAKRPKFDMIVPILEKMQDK

The target in test [3] is Tyrosine-protein kinase Lck (Homo sapiens, UniProt P06239).
Sequence of Tyrosine-protein kinase Lck (P06239 whole entry): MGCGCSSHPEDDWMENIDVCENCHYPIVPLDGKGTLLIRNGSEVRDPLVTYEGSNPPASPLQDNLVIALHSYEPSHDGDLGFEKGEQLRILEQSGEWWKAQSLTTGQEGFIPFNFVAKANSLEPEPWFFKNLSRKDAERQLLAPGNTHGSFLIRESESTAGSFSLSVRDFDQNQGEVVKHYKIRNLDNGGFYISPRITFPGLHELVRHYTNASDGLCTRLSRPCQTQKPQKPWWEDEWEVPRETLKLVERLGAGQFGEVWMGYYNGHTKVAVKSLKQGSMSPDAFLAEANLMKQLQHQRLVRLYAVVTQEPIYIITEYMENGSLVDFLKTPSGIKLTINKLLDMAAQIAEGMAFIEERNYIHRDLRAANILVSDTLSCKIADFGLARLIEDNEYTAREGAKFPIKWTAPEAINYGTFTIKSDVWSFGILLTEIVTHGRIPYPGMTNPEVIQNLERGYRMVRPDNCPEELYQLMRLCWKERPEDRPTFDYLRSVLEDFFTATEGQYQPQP
Test [4] has as its target T3, Acyl-CoA dehydrogenase family member 11 (Homo sapiens, UniProt Q709F0).
T3 sequence (Q709F0 whole entry): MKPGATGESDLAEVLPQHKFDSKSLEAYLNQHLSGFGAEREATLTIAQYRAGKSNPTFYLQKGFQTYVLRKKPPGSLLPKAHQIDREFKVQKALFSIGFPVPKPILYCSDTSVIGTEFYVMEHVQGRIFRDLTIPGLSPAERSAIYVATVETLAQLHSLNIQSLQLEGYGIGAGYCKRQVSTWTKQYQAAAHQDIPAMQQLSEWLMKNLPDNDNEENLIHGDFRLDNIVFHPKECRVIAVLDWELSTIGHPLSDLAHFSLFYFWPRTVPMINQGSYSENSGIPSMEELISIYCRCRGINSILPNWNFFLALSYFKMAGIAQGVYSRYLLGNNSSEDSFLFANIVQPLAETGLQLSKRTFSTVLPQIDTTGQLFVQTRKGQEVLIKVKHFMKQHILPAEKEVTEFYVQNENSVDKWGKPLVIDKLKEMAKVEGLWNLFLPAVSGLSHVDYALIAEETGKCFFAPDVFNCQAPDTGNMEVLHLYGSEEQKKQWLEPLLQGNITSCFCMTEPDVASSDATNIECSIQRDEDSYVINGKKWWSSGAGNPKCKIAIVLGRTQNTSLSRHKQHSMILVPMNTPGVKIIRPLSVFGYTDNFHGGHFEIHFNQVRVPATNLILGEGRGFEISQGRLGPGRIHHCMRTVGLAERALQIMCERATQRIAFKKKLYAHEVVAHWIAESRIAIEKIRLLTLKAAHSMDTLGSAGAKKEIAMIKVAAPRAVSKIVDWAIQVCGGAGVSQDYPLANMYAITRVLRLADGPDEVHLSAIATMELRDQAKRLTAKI

The target of test [5] is T4, Serine/threonine-protein kinase ULK3 (Homo sapiens, UniProt Q6PHR2).
T4 sequence (Q6PHR2 whole entry): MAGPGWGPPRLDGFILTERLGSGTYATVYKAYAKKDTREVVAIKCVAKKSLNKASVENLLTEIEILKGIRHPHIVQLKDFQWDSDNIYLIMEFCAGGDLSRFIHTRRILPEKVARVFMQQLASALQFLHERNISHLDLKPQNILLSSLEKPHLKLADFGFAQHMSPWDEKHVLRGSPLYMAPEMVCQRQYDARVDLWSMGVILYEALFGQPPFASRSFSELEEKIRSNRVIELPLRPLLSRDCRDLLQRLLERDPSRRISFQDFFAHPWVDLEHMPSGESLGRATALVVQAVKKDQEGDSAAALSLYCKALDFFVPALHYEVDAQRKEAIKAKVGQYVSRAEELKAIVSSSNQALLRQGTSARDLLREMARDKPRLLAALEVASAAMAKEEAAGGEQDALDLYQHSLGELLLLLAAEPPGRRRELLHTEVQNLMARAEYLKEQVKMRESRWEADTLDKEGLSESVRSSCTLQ

As a reminder, the Kd is the concentration at which binding is half-saturated.

Active and inactive are the calls of the source. For most assays here, no stated cut-off is given here; in the data, actives have a measured Kd and inactives only a lower limit.

Sequence of Ephrin type-A receptor 4 (P54764 whole entry): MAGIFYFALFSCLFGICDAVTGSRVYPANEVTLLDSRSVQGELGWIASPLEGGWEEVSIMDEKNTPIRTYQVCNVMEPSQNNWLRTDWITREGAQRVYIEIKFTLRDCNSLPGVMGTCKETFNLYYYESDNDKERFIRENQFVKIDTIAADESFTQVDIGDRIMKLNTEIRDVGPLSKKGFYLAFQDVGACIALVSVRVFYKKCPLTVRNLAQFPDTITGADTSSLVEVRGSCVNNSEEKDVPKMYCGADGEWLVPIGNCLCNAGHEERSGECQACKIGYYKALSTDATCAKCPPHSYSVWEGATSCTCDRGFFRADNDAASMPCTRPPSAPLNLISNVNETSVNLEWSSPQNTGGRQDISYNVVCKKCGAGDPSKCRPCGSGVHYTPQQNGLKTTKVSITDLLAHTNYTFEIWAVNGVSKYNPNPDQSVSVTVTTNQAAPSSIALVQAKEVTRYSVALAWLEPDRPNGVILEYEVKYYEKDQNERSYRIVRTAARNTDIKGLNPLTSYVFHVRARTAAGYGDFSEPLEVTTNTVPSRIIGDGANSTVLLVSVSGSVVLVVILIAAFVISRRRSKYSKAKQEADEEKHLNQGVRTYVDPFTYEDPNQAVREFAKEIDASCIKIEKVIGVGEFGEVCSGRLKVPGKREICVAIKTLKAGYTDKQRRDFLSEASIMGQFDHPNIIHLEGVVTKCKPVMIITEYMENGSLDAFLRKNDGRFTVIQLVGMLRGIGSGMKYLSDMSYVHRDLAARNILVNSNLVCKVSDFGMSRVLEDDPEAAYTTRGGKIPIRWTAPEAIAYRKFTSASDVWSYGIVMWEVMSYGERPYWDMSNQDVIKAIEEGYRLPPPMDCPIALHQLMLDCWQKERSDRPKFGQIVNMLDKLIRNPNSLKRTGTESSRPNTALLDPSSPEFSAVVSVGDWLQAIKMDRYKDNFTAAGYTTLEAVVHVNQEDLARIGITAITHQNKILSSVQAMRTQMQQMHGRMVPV
Sequence of Focal adhesion kinase 1 (Q05397 whole entry): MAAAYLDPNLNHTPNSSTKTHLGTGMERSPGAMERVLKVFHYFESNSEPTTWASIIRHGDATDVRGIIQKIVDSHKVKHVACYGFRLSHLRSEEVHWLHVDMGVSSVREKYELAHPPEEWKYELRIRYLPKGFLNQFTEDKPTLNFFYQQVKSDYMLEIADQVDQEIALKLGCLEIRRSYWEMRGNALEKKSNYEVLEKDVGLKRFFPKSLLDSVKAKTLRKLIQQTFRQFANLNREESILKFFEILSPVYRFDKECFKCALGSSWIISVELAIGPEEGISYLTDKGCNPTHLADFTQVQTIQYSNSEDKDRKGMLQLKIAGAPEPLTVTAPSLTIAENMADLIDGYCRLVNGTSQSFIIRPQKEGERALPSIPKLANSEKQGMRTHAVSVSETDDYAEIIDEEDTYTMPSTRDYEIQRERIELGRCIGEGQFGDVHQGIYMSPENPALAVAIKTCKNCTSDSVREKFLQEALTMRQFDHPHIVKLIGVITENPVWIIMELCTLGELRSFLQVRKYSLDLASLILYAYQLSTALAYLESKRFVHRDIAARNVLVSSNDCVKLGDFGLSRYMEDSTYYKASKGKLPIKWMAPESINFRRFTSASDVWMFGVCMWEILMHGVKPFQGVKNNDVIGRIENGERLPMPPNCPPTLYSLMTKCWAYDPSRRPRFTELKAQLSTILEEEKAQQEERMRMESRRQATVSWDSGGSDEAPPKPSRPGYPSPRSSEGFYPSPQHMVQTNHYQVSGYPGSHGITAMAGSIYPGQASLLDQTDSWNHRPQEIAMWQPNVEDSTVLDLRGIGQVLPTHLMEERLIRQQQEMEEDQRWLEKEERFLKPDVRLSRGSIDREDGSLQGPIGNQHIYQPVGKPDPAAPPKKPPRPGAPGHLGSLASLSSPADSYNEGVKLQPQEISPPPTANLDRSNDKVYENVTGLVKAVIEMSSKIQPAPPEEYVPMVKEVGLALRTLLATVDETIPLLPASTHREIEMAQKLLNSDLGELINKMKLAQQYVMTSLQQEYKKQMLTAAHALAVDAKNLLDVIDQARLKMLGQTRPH
Sequence of Aurora kinase B (Q96GD4 whole entry): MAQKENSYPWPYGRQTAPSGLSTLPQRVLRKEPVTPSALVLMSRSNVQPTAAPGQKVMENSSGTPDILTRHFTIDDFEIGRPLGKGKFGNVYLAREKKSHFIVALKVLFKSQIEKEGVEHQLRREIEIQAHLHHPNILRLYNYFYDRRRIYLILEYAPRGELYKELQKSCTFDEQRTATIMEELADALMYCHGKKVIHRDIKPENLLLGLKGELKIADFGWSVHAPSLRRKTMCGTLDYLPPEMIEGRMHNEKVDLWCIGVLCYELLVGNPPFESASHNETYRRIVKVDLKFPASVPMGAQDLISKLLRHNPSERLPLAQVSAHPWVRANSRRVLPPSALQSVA

`Cc1cc([C@@H](C)Nc2ccccc2C(=O)O)c2nc(N3CCOCC3)cc(=O)n2c1` [AZD-6482]: the Kd (in [1]; in test [2]; on Ephrin type-A receptor 4; on Focal adhesion kinase 1; on Scaffold protein ILK; in [3]) was > 30 µM (inactive) in each case. The Kd (in [4]; in [5]; at Aurora kinase B) was > 30 µM (inactive) in each case.

With `CCN1CCN(Cc2ccc(-c3cc4c(N[C@H](C)c5ccccc5)ncnc4[nH]3)cc2)CC1` [AEE-788], the Kd (in [1]; in test [2]; at Ephrin type-A receptor 4; on Focal adhesion kinase 1; on Scaffold protein ILK; in test [3]) was > 30 µM (inactive) each time. The Kd (in test [4]; in test [5]; on Aurora kinase B) was > 30 µM (inactive) in each case.

`CC(=O)Nc1cccc(-n2c(=O)n(C3CC3)c(=O)c3c(Nc4ccc(I)cc4F)n(C)c(=O)c(C)c32)c1` [TRAMETINIB]: the Kd (in [1]; in [2]; at Ephrin type-A receptor 4; at Focal adhesion kinase 1; at Scaffold protein ILK; in test [3]) was > 30 µM (inactive) throughout. The Kd (in test [4]; in test [5]; on Aurora kinase B) was > 30 µM (inactive) each time.

Turning to `CNS(=O)(=O)Nc1nccc(Cc2c(C)c3ccc(Oc4ncccn4)cc3oc2=O)c1F` [AVUTOMETINIB], the Kd was > 30 µM (inactive) in test [1]; 0.007 µM in [2]; > 30 µM (inactive) on Ephrin type-A receptor 4; > 30 µM (inactive) on Focal adhesion kinase 1; > 30 µM (inactive) on Scaffold protein ILK; > 30 µM (inactive) in test [3]. Moreover, the Kd (in test [4]; in [5]; at Aurora kinase B) was > 30 µM (inactive) in each case.

For the origin of these results see ChEMBL document CHEMBL3991601, “The target landscape of clinical kinase drugs” (Science, 2017).
